A word on the half-life: it is how long it takes for the measured level to halve. What is called Tmax is the time from dosing to the highest level. The term bioavailability denotes the share of a dose that reaches the circulation, judged against a reference dose that is usually intravenous. A lower bioavailability goes with little systemic uptake. For orientation: EC50 means the midpoint of the concentration-response curve.

Read-outs that look alike come from different tables or passages of the source. *1 amine or outer side, *2 acyl side, *3 side chain or, on linkers, in order; H or OH if unused. Where a SMILES comes first, the peptide text is derived from it. Side-chain parts run from the residue outwards. [ ]: non-standard residue; d: D form. The star is where a group is joined. γGlu = O=C(O)[C@H](CCC(=O)[*:2])N[*:1]; Palmitoyl = CCCCCCCCCCCCCCCC(=O)*; Aib = CC(C)(N)C(=O)O

The record followed here is patent US10253081B2, “Glucagon analogues” (Zealand Pharma A/S, priority 2012, dated 2019).

Data set [1] is described as follows: Pharmacokinetic parameters after subcutaneous and intravenous administration to mice. It counts as in vivo. Conditions: male, mouse, plasma, 20 nmol/kg, C57Bl/6J mice; for half-life: read-out: Terminal half life (converted); for MRT: read-out: Mean Residence Time. The method in brief:
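Male C57Bl/6J mice (8–11 weeks) given GLP-1-glucagon dual agonists at 20 nmol/kg s.c. (neck) or i.v. (tail vein), dosing solution 4 μM in PBS with 25 mM phosphate, pH 7.4. Plasma sampled to 24 h, measured by LC-MS/MS; parameters by non-compartmental analysis.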

For data set [2], the target named is T1, human glucagon receptor (Glucagon-R) (Homo sapiens, UniProt P47871).
T1 construct: expressed in transfected cells
Kind of data set: Glucagon receptor efficacy assay (cAMP AlphaScreen, CHO cells). It counts as cell-based. Conditions: Table 1A; CHO cells expressing human Glucagon-R, cAMP; read-out: EC50 hGCGR CHO-K1. The method in brief:
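Stably transfected CHO clones expressing human GLP-1R or glucagon receptor were treated with increasing peptide concentrations for 15 min at room temperature in KRBH containing 0.1 mM IBMX. After lysis, cAMP was quantified by AlphaScreen; EC50 and efficacy relative to GLP-1 or glucagon reference came from curve fitting.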
A general note: Bead proximity is the source of the signal in Alpha formats.

Data set [3] addresses T2, endogenous glucagon receptor (Rattus norvegicus, UniProt P30082).
T2 construct: Agonistic activity of the test compounds on endogenous glucagon receptor; endogenous in cells; host or cells: primary rat hepatocytes
In words: Agonistic activity on endogenous glucagon receptor (glycogen synthesis rate in primary rat hepatocytes). It counts as cell-based. Conditions: inhibition of glycogen synthesis rate, 3 hours, read-out: EC50 GLP-1R Rat hepat. An outline of the steps:
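Primary rat hepatocytes (40,000 cells/well, cultured 24 h) incubated 3 h with compound in KRBH buffer with 0.1% BSA, 22.5 mM glucose and D-[U14C]glucose. 14C incorporated into precipitated glycogen counted, background-subtracted and expressed as % of 0.1% DMSO vehicle (100% CTL). pEC50 from cpm versus log concentration; agonism lowers glycogen synthesis.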

T1 sequence (P47871 26-477): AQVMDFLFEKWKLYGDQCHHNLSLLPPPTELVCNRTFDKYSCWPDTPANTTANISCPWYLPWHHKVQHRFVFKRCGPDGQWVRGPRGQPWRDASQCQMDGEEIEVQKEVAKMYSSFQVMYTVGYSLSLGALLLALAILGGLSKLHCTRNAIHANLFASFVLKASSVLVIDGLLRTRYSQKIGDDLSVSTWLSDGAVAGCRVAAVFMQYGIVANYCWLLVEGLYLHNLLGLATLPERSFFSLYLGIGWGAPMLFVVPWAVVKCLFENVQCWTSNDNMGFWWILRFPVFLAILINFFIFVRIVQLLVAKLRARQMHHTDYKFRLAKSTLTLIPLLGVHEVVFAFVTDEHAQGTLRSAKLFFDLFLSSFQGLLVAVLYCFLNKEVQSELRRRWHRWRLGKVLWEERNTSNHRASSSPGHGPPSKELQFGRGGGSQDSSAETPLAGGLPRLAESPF
T2 sequence (P30082 27-485): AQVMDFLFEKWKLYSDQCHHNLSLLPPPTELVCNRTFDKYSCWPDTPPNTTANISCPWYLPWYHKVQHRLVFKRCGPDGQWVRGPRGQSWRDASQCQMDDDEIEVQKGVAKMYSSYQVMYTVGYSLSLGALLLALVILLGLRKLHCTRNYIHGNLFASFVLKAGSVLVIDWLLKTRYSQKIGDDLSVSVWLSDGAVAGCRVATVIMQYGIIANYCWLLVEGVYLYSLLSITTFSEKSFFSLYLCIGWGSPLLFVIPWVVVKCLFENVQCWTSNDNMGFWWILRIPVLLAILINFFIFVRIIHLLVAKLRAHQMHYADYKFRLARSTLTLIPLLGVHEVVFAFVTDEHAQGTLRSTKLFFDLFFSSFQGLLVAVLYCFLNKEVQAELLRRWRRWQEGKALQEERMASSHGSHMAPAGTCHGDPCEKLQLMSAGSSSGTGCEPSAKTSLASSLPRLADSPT

As to `CCCCCCCCCCCCCCCC(=O)N[C@@H](CCC(=O)NCCCC[C@H](NC(=O)[C@H](CCC(=O)O)NC(=O)[C@H](CC(=O)O)NC(=O)[C@H](CC(C)C)NC(=O)[C@H](Cc1ccc(O)cc1)NC(=O)[C@H](CCCCN)NC(=O)[C@H](CO)NC(=O)[C@H](Cc1ccc(O)cc1)NC(=O)[C@H](CC(=O)O)NC(=O)[C@H](CO)NC(=O)[C@@H](NC(=O)[C@H](Cc1ccccc1)NC(=O)[C@@H](NC(=O)CNC(=O)[C@H](CCC(N)=O)NC(=O)C(C)(C)NC(=O)[C@@H](N)Cc1c[nH]cn1)[C@@H](C)O)[C@@H](C)O)C(=O)N[C@@H](C)C(=O)N[C@@H](C)C(=O)N[C@@H](CCCCN)C(=O)N[C@@H](CC(=O)O)C(=O)N[C@@H](Cc1ccccc1)C(=O)N[C@H](C(=O)N[C@@H](CCC(=O)O)C(=O)N[C@@H](Cc1c[nH]c2ccccc12)C(=O)N[C@@H](CC(C)C)C(=O)N[C@@H](CCC(=O)O)C(=O)N[C@@H](CO)C(=O)N[C@@H](C)C(N)=O)[C@@H](C)CC)C(=O)O` [Compound 15, H-H-Aib-QGTFTSDYSKYLDE-K(Hexadecanoyl-isoGlu)-AAKDFIEWLESA-NH2], in data set [1] (IV), the clearance is 0.0077 L/h/kg and the half-life is 6 h. Moreover, in data set [1] (SC), the Tmax turned out to be 6 h, the bioavailability is 97%, the MRT was determined as 17.4 h and the half-life was 10.5 h. For the same molecule, the half-maximal effective concentration (EC50) in data set [2] turned out to be 0.61 nM. Besides, the half-maximal effective concentration (EC50) in data set [3] came out at 0.17 nM.
Take `CCCCCCCCCCCCCCCC(=O)N[C@@H](CCC(=O)NCCCC[C@H](NC(=O)[C@H](CO)NC(=O)[C@H](CC(=O)O)NC(=O)[C@H](CC(C)C)NC(=O)[C@H](Cc1ccc(O)cc1)NC(=O)[C@H](CCCCN)NC(=O)[C@H](CO)NC(=O)[C@H](Cc1ccc(O)cc1)NC(=O)[C@H](CC(=O)O)NC(=O)[C@H](CO)NC(=O)[C@@H](NC(=O)[C@H](Cc1ccccc1)NC(=O)[C@@H](NC(=O)CNC(=O)[C@H](CCC(N)=O)NC(=O)C(C)(C)NC(=O)[C@@H](N)Cc1c[nH]cn1)[C@@H](C)O)[C@@H](C)O)C(=O)N[C@@H](C)C(=O)N[C@@H](C)C(=O)N[C@@H](CCC(=O)O)C(=O)N[C@@H](CC(=O)O)C(=O)N[C@@H](Cc1ccccc1)C(=O)N[C@H](C(=O)N[C@@H](CCC(=O)O)C(=O)N[C@@H](Cc1c[nH]c2ccccc12)C(=O)N[C@@H](CC(C)C)C(=O)N[C@@H](CCC(=O)O)C(=O)N[C@@H](CO)C(=O)N[C@@H](C)C(N)=O)C(C)C)C(=O)O` [Compound 16, H-H-Aib-QGTFTSDYSKYLDS-K(Hexadecanoyl-isoGlu)-AAEDFVEWLESA-NH2] (H-H[Aib]QGTFTSDYSKYLDSK([γGlu-Palmitoyl])AAEDFVEWLESA-NH2): in data set [1] (IV), the clearance is 0.0187 L/h/kg and the half-life was 4.8 h. For the same molecule, in data set [1] (SC), the time of peak concentration (Tmax) was 2 h, the bioavailability was 80%, the MRT is 7.5 h and the half-life is 5 h. The EC50 in data set [2] worked out at 1.58 nM. Further, the EC50 in data set [3] is 1.85 nM.
